From ChEMBL document CHEMBL4257522, “Synthesis and preliminary anti-inflammatory and anti-bacterial evaluation of some diflunisal aza-analogs” (Medchemcomm, 2018) come the findings set out here.

Active and inactive are the calls of the source. The calls are words filed in the database; no cut-off is given here.

For series [1], the system named is Macrophage cell line. The experiment in a line: Antiinflammatory activity in human PBMC-differentiated macrophages assessed as lowest concentration required to show at least 25% inhibition of LPS-induced prostaglandin production measured after 24 hrs by ELISA. Format: functional. For orientation: ELISA stands for enzyme-linked immunosorbent assay.
Series [2] has as its system Macrophage cell line. Nature of the series: Antiinflammatory activity in human PBMC-differentiated macrophages assessed as inhibition of LPS-induced TNFalpha production at 0.01 to 10 uM measured after 24 hrs by ELISA. The class given is functional, cell-based.
Series [3] concerns Macrophage cell line. The experiment in a line: Antiinflammatory activity in human PBMC-differentiated macrophages assessed as inhibition of LPS-induced IL-8 production at 0.01 to 10 uM measured after 24 hrs by ELISA. Format: functional, cell-based.
The subject of series [4] is Macrophage cell line. The experiment in a line: Antiinflammatory activity in human PBMC-differentiated macrophages assessed as inhibition of LPS-induced IL-1beta production at 0.01 to 10 uM measured after 24 hrs by ELISA. The class given is functional, cell-based.
For series [5], the system named is Macrophage cell line. The experiment in a line: Induction of TNFalpha production in human PBMC-differentiated macrophages after 24 hrs by ELISA. Format: cell-based.
In series [6] the test system is Pseudomonas aeruginosa. Nature of the series: Toxicity in Pseudomonas aeruginosa ATCC BAA-2108 up to 32 uM measured after 16 hrs. The class given is organism-based. To be noted: in vitro.
For series [7], the system named is Klebsiella pneumoniae. Nature of the series: Potentiation of methicillin-induced antibacterial activity against Klebsiella pneumoniae ATCC 13883 assessed as minimum modulatory concentration up to 32 uM measured after 16 hrs in presence of MIC/4 methicillin. Format: functional. To be noted: ATCC 13883, 16 h, read-out: MEC.
The test system of series [8] is Klebsiella pneumoniae. The experiment in a line: Potentiation of erythromycin-induced antibacterial activity against Klebsiella pneumoniae ATCC 13883 assessed as minimum modulatory concentration up to 32 uM measured after 16 hrs in presence of MIC/4 erythromycin. Format: functional. The following applies: ATCC 13883, 16 h, read-out: MEC.
The test system of another series is Enterococcus faecium. Nature of the series: Potentiation of ciprofloxacin-induced antibacterial activity against Enterococcus faecium ATCC 700221 assessed as minimum modulatory concentration up to 32 uM measured after 16 hrs in presence of MIC/4 ciprofloxacin. The class given is functional. To be noted: ATCC 700221, 16 h, read-out: MEC.
The test system of series [9] is Pseudomonas aeruginosa. Nature of the series: Potentiation of geneticin-induced antibacterial activity against Pseudomonas aeruginosa ATCC BAA-2108 assessed as minimum modulatory concentration up to 32 uM measured after 16 hrs in presence of MIC/4 geneticin. Format: functional. To be noted: ATCC BAA-2108, 16 h, read-out: MEC.
The test system of series [10] is Escherichia coli. The experiment in a line: Potentiation of methicillin-induced antibacterial activity against Escherichia coli ATCC 43894 assessed as minimum modulatory concentration up to 32 uM measured after 16 hrs in presence of MIC/4 methicillin. The class given is functional. The following applies: ATCC 43894, 16 h, read-out: MEC.
For series [11], the system named is Escherichia coli. The experiment in a line: Potentiation of geneticin-induced antibacterial activity against Escherichia coli ATCC 43894 assessed as minimum modulatory concentration up to 32 uM measured after 16 hrs in presence of MIC/4 geneticin. Format: functional. To be noted: ATCC 43894, 16 h, read-out: MEC.
Series [12] has as its system Macrophage cell line. Nature of the series: Antiinflammatory activity in human PBMC-differentiated macrophages assessed as lowest concentration required to show at least 25% inhibition of LPS-induced TNFalpha production measured after 24 hrs by ELISA. Format: functional.
For series [13], the system named is Macrophage cell line. The experiment in a line: Antiinflammatory activity in human PBMC-differentiated macrophages assessed as lowest concentration required to show at least 25% inhibition of LPS-induced IL-8 production measured after 24 hrs by ELISA. The class given is functional.
For series [14], the system named is Macrophage cell line. The experiment in a line: Antiinflammatory activity in human PBMC-differentiated macrophages assessed as lowest concentration required to show at least 25% inhibition of LPS-induced IL-1beta production measured after 24 hrs by ELISA. Format: functional.

Regarding `O=C(O)c1cc(-c2ccc(F)cc2F)ccc1O` [DIFLUNISAL], the values for the Activity in the series with Macrophage cell line [1], with Macrophage cell line [5] and in the series with Pseudomonas aeruginosa [6] were 0.1 µM, “Non-Toxic” and “Non-Toxic”, respectively. Moreover, the inhibition entry in the series on Macrophage cell line [2], in the series with Macrophage cell line [3] and with Macrophage cell line [4] was “inactive” in each case. In addition, the minimal effective concentration in the series with Klebsiella pneumoniae [7], in the series on Klebsiella pneumoniae [8], in the series on Enterococcus faecium, with Pseudomonas aeruginosa [9], in the series with Escherichia coli [10] and in the series on Escherichia coli [11] was more than 32 µM throughout.

On to `O=C(O)c1cc(O)c(-c2ccccc2)nc1-c1ccccc1`, for which the Activity in the series with Macrophage cell line [12] was 10 µM; with Macrophage cell line [13] it was 10 µM; in the series on Macrophage cell line [14], 10 µM; with Macrophage cell line [5] it was “Non-Toxic”; with Pseudomonas aeruginosa [6] it was “Non-Toxic”. Further, the minimal effective concentration in the series on Klebsiella pneumoniae [7], with Klebsiella pneumoniae [8], in the series on Enterococcus faecium, in the series with Pseudomonas aeruginosa [9], with Escherichia coli [10] and with Escherichia coli [11] was more than 32 µM each time.

On to `O=C(O)c1cc(-c2ccccc2)ncc1O`, for which the inhibition result with Macrophage cell line [2], with Macrophage cell line [3] and in the series on Macrophage cell line [4] was “inactive” each time. In addition, the Activity result in the series with Macrophage cell line [5] and in the series with Pseudomonas aeruginosa [6] was “Non-Toxic” throughout. Moreover, the minimal effective concentration in the series on Klebsiella pneumoniae [7], in the series with Klebsiella pneumoniae [8], with Enterococcus faecium, in the series on Pseudomonas aeruginosa [9], with Escherichia coli [10] and in the series on Escherichia coli [11] was more than 32 µM each time.

Take `O=C(O)c1ccnc(Cc2ccccc2)c1O`: the inhibition result in the series with Macrophage cell line [2], in the series on Macrophage cell line [3] and in the series with Macrophage cell line [4] was “inactive” in each case. Also, the Activity entry in the series with Macrophage cell line [5] and in the series on Pseudomonas aeruginosa [6] was “Non-Toxic” in each case. Besides, the minimal effective concentration in the series with Klebsiella pneumoniae [7], in the series with Klebsiella pneumoniae [8], with Enterococcus faecium, in the series with Pseudomonas aeruginosa [9], in the series on Escherichia coli [10] and in the series with Escherichia coli [11] was more than 32 µM each time.

In the case of `COc1cccc(-c2cc(C(=O)[O-])c(O)c[n+]2C)c1`, the inhibition result in the series on Macrophage cell line [2], in the series with Macrophage cell line [3] and with Macrophage cell line [4] was “inactive” in each case. Moreover, the Activity entry in the series on Macrophage cell line [5] and with Pseudomonas aeruginosa [6] was “Non-Toxic” each time. Further, the minimal effective concentration in the series on Klebsiella pneumoniae [7], in the series with Klebsiella pneumoniae [8], in the series on Enterococcus faecium, in the series with Pseudomonas aeruginosa [9], in the series with Escherichia coli [10] and with Escherichia coli [11] was more than 32 µM throughout.

For the molecule `O=C(O)c1ccnc(-c2ccccc2)c1O`, the Activity was 10 µM in the series on Macrophage cell line [12]; 10 µM in the series on Macrophage cell line [13]; 10 µM in the series with Macrophage cell line [14]; “Non-Toxic” in the series with Macrophage cell line [5]; “Non-Toxic” with Pseudomonas aeruginosa [6]. The minimal effective concentration in the series with Klebsiella pneumoniae [7], in the series with Klebsiella pneumoniae [8], in the series on Enterococcus faecium, in the series with Pseudomonas aeruginosa [9], with Escherichia coli [10] and in the series on Escherichia coli [11] was more than 32 µM in each case.

Turning to `COc1cccc(-c2cc(C(=O)O)c(O)cn2)c1`, the inhibition result with Macrophage cell line [2], with Macrophage cell line [3] and in the series with Macrophage cell line [4] was “inactive” each time. In addition, the Activity entry in the series on Macrophage cell line [5] and in the series with Pseudomonas aeruginosa [6] was “Non-Toxic” in each case. Further, the minimal effective concentration in the series on Klebsiella pneumoniae [7], with Klebsiella pneumoniae [8], in the series with Enterococcus faecium, with Pseudomonas aeruginosa [9], in the series on Escherichia coli [10] and in the series with Escherichia coli [11] was more than 32 µM in each case.

Turning to `O=C(O)c1cnc(-c2ccccc2)c(O)c1`, the inhibition result in the series with Macrophage cell line [2], with Macrophage cell line [3] and in the series on Macrophage cell line [4] was “inactive” throughout. In addition, the Activity result with Macrophage cell line [5] and in the series on Pseudomonas aeruginosa [6] was “Non-Toxic” in each case. Further, the minimal effective concentration with Klebsiella pneumoniae [7], in the series with Klebsiella pneumoniae [8], in the series with Enterococcus faecium, with Pseudomonas aeruginosa [9], with Escherichia coli [10] and with Escherichia coli [11] was more than 32 µM each time.

For the molecule `Cc1cc(C(=O)O)c(O)c(Cc2ccccc2)n1`, the inhibition result in the series on Macrophage cell line [2], in the series with Macrophage cell line [3] and with Macrophage cell line [4] was “inactive” in each case. Besides, the Activity entry in the series on Macrophage cell line [5] and in the series with Pseudomonas aeruginosa [6] was “Non-Toxic” in each case. Besides, the minimal effective concentration with Klebsiella pneumoniae [7], in the series with Klebsiella pneumoniae [8], with Enterococcus faecium, in the series on Pseudomonas aeruginosa [9], in the series with Escherichia coli [10] and in the series on Escherichia coli [11] was more than 32 µM in each case.

In the case of `O=C(O)c1cc(O)cnc1-c1ccccc1`, the Activity is 10 µM with Macrophage cell line [12]; 10 µM in the series with Macrophage cell line [13]; 10 µM in the series on Macrophage cell line [14]; “Non-Toxic” with Macrophage cell line [5]; “Non-Toxic” in the series with Pseudomonas aeruginosa [6]. For the same molecule, the minimal effective concentration with Klebsiella pneumoniae [7], with Klebsiella pneumoniae [8], with Enterococcus faecium, in the series with Pseudomonas aeruginosa [9], in the series on Escherichia coli [10] and with Escherichia coli [11] was more than 32 µM throughout.

Take `C[n+]1ccc(C(=O)[O-])c(O)c1Cc1ccccc1`: the inhibition entry in the series with Macrophage cell line [2], in the series with Macrophage cell line [3] and in the series with Macrophage cell line [4] was “inactive” in each case. The Activity result with Macrophage cell line [5] and in the series on Pseudomonas aeruginosa [6] was “Non-Toxic” in each case. Further, the minimal effective concentration in the series on Klebsiella pneumoniae [7], with Klebsiella pneumoniae [8], with Enterococcus faecium, in the series with Pseudomonas aeruginosa [9], in the series on Escherichia coli [10] and in the series on Escherichia coli [11] was more than 32 µM each time.

For the molecule `Cc1nc(-c2ccccc2)c(O)cc1C(=O)O`, the Activity in the series on Macrophage cell line [12] is 10 µM; in the series with Macrophage cell line [14], 10 µM; in the series with Macrophage cell line [5], “Non-Toxic”; with Pseudomonas aeruginosa [6], “Non-Toxic”. In the series with Macrophage cell line [3], the inhibition result was “inactive”. Besides, the minimal effective concentration in the series with Klebsiella pneumoniae [7], with Klebsiella pneumoniae [8], in the series on Enterococcus faecium, with Pseudomonas aeruginosa [9], with Escherichia coli [10] and in the series with Escherichia coli [11] was more than 32 µM throughout.

Consider `Cc1nc(-c2ccccc2)cc(C(=O)O)c1O`, for which the inhibition entry in the series on Macrophage cell line [2], with Macrophage cell line [3] and with Macrophage cell line [4] was “inactive” throughout. The Activity entry in the series on Macrophage cell line [5] and in the series with Pseudomonas aeruginosa [6] was “Non-Toxic” throughout. Moreover, the minimal effective concentration with Klebsiella pneumoniae [7], in the series with Klebsiella pneumoniae [8], with Enterococcus faecium, in the series on Pseudomonas aeruginosa [9], in the series on Escherichia coli [10] and with Escherichia coli [11] was more than 32 µM throughout.

As for `C[n+]1cc(O)c(C(=O)[O-])cc1-c1ccccc1`, the inhibition result with Macrophage cell line [2], in the series on Macrophage cell line [3] and in the series with Macrophage cell line [4] was “inactive” throughout. Moreover, the Activity result in the series on Macrophage cell line [5] and with Pseudomonas aeruginosa [6] was “Non-Toxic” each time. The minimal effective concentration with Klebsiella pneumoniae [7], with Klebsiella pneumoniae [8], in the series on Enterococcus faecium, in the series on Pseudomonas aeruginosa [9], with Escherichia coli [10] and in the series with Escherichia coli [11] was more than 32 µM in each case.
